Measurements as given in PMC7177638 (International Journal of Molecular Sciences, 2020).

What was measured:
[1] = Cyclic voltammetry, cathodic reduction potential in aqueous solution; assay type: physicochemical; conditions: values normalized vs. SCE; phosphate buffer pH 7.4, 5 mM NaCl, 5·10^−4 M complex, scan rate 0.020 V s^−1
Description: The electrochemical characterization of compounds 1–6, performed by using cyclic voltammetry (CV), was carried out with the aim of determining the cathodic reduction potentials in aqueous solution (Ep^c).
Cyclic voltammetry (CV) measurements were carried out with a potentiostat CHI 1230B (CH Instruments, Inc., Austin, TX, USA) in a standard three-electrode electrochemical cell. The working electrode was a glassy carbon (GC) electrode, the reference electrode was a KCl-saturated Ag/AgCl and the counter was a Pt sheet. The GC electrode was carefully polished with alumina powder, then rinsed with distilled water and dried, to obtain a reproducible surface for all the experiments. All the measurements, conducted in triplicate, were carried out in buffered aqueous solutions containing the Pt(IV) compound at a concentration of 5·10^−4 M in 10 mL phosphate buffer (PB, pH = 7.4, I = 0.1) and 5 mM NaCl as supporting electrolyte. A blank solution (without Pt(IV) complex) was also tested. All the peak potentials were measured with a scan rate of 0.020 V s^−1; the initial potential was chosen equal to the open-circuit potential and the scan direction was negative. All the CV plots were acquired after an equilibration time of 2 min in order to make the GC surface reproducible.

LoVo-OXP cancer cells = test: MTT cytotoxicity test, 72 h, oxaliplatin-resistant cells; assay type: cell-based, human; conditions: for IC50: LoVo OXP
From the text: (§1) Human colon (HCT-15 and LoVo) and pancreatic (PSN-1) carcinoma cell lines were obtained from the American Type Culture Collection (ATCC, RocKville, MD). The 2008 human ovarian cancer cells were kindly provided by Prof. G. Marverti (Dept. of Biomedical Science of Modena University, Italy). Human cervical carcinoma (A431) cells were kindly provided by Prof. F. Zunino (Division of Experimental Oncology B, Istituto Nazionale dei Tumori, Milan, Italy). […] Cell lines were maintained in the logarithmic phase at 37 °C in a 5% carbon dioxide atmosphere using RPMI-1640 or F-12 culture medium (Euroclone) containing 10% fetal calf serum (Euroclone, Milan, Italy), antibiotics (50 units per mL penicillin and 50 μg mL^−1 streptomycin), and 2 mM L-glutamine.
(§2) The growth inhibitory effect toward the tumor cell lines was evaluated by the MTT test. Briefly, 3-8·10^3 cells/well, depending upon the growth characteristics of the cell lines, were seeded in 96-well microplates in growth medium (100 µL) and then incubated at 37 °C in a 5% carbon dioxide atmosphere. After 24 h, the medium was removed and replaced with a fresh one containing the compound to be tested at the appropriate concentration. Triplicate cultures were established for each treatment. After 72 h, each well was treated with 10 µL of a 5 mg·mL^−1 MTT (3-(4,5-dimethylthiazol-2-yl)-2,5-diphenyltetrazolium bromide) saline solution and, after 5 h of incubation, 100 µL of a sodium dodecylsulfate (SDS) solution in HCl 0.01 M were added. Following an overnight incubation, the inhibition of cell growth induced by the tested complexes was evaluated by measuring the absorbance of each well at 570 nm using a Bio-Rad 680 microplate reader (Bio-Rad Laboratories S.r.l., Segrate (MI), Italy).

[2] = tested on: human A431 cancer cell spheroids; test: Cytotoxicity towards 3D spheroids, acid phosphatase (APH) assay; assay type: cell-based; conditions: A431 3D spheroids, 72 h; for IC50: APH assay
From the text: The remarkable cell-killing effect observed against human A431 squamous cervical carcinoma two-dimensional (2D) cultured cells prompted us to evaluate the in vitro antitumor activity of compounds 1–6 on three-dimensional (3D) cell cultures. As opposed to 2D monolayer cultures, cells growing in 3D culture systems form spheroids that comprise cells in various stages. […] Such cellular heterogeneity resembles that of in vivo tumors, making 3D cell cultures more predictive than conventional 2D monolayer cultures in screening antitumor drugs.
Spheroid cultures were obtained by seeding 2.5 × 10^3 A431 cancer cells/well in a round bottom non-treated tissue culture 96 well-plate (Greiner Bio-one, Kremsmünster, Austria) in phenol red free RPMI-1640 medium (Sigma Chemical Co.) containing 10% fetal calf serum (FCS) and supplemented with 20% methyl cellulose stock solution.
An APH modified assay was used for determining cell viability in 3D spheroids, as previously described. IC50 values were calculated with a four parameter logistic (4-PL) model.

[3] = tested on: A431 human cervical carcinoma cells; test: MTT cytotoxicity test, 72 h; assay type: cell-based
Description: (§3) The in vitro cytotoxic activities of compounds 1–6 were assayed on a panel of human cancer cell lines containing examples of pancreatic (PSN-1), colon (HCT-15 and LoVo), cervical (A431), and ovarian (2008) cancers. Cisplatin and oxaliplatin were used as reference compounds and were tested under the same experimental conditions.
as §1, §2

[4] = tested on: HCT-15 human colon carcinoma cells; test: MTT cytotoxicity test, 72 h; assay type: cell-based; conditions: HCT-15, MTT
Description: as §3, §1, §2

[5] = tested on: LoVo human colon carcinoma cells; test: MTT cytotoxicity test, 72 h; assay type: cell-based
Description: as §3, §1, §2

[6] = tested on: PSN-1 human pancreatic carcinoma cells; test: MTT cytotoxicity test, 72 h; assay type: cell-based; conditions: PSN-1, MTT
Description: as §3, §1, §2

[7] = tested on: 2008 human ovarian cancer cells; test: MTT cytotoxicity test, 72 h; assay type: cell-based; conditions: 2008, MTT
Description: as §3, §1, §2

[8] = XPS Pt4f surface reduction of Pt(IV) to Pt(II) under X-ray irradiation; assay type: physicochemical; conditions: after 30 min irradiation, calculated from Pt(IV) abundances
From the text: The Pt(IV) complexes were also characterized by X-ray photoelectron spectroscopy (XPS) in order to obtain information on the surface chemical composition and on the platinum speciation. Despite the surface sensitivity of the technique (topmost 5–8 nm), the analysis on homogeneous samples provides useful information on the chemical environment of all detected elements. […] Two doublets were found: one is attributed to Pt(II) (BE Pt4f7/2 = 72.9 ± 0.2 eV and BE Pt4f5/2 = 76.2 ± 0.2 eV), while the second doublet is attributed to Pt(IV) (BE Pt4f7/2 = 75.6 ± 0.2 eV and BE Pt4f5/2 = 79.0 ± 0.2 eV).
The Pt(IV)/Pt(II) relative abundance varies from case to case; moreover, if the X-ray degradation is monitored after 30 min exposure to the X-ray beam, an increase of the Pt(II) relative abundance is observed (Figure 8b).
X-ray Photoelectron Spectroscopy (XPS) analyses were run on a PHI 5000 Versa Probe II Scanning XPS Microprobe spectrometer (ULVAC PHI Inc., Kanagawa, Japan). Measurements were carried out using a monochromatic Al Kα source (X-ray spot 200 μm) at a power of 50.3 W. Wide scan and detailed spectra (Pt4f, C1s, Cl2p, N1s, O1s) were acquired in Constant Analyzer Energy (CAE) mode with a pass energy of 117.40 and 29.35 eV, respectively. An electron gun was used for charge compensation (1.0 V, 20.0 μA). Due to the X-ray sensitivity of Pt(IV) complexes, the Pt4f spectral region was acquired first. X-ray degradation kinetics experiments were performed analyzing the same sample area after 30 min. Data processing was performed by using the MultiPak software v. 9.8.0.19.

Structure (SMILES)	Cathodic reduction potential Ep^c [1] [V]	effectiveness against sensitive (LoVo) versus resistant (LoVo-OXP) cells (LoVo-OXP cancer cells)	IC50 (LoVo-OXP cancer cells) [µM]	efficacy in decreasing cancer spheroid viability, times higher than CDDP [2]	efficacy in decreasing cancer spheroid viability, times higher than OXP [2]	IC50 [2] [µM]	IC50 [3] [µM]	IC50 [4] [µM]	IC50 [5] [µM]	IC50 [6] [µM]	IC50 [7] [µM]	% of Reduction [8] [%]
NC1CC=CCC1N.O=C([O-])C(=O)[O-].O=C([O-])c1ccccc1.O=C([O-])c1ccccc1.[Pt+4] (mixture of isomers) [Complex 3, cis,trans,cis-[Pt(OXA)(BzO)2(DACHEX)]]	−0.99	equally effective	0.09 ± 0.02	about 32	~20	1.8 ± 0.4	0.16 ± 0.07	0.41 ± 0.1	0.07 ± 0.02	0.54 ± 0.3	0.14 ± 0.03	66
CC(=O)[O][Pt]1([Cl])[O]C(=O)C(=O)[O]1.NC1CC=CCC1N (racemic) [Complex 5, cis,trans,cis-[Pt(OXA)(AcO)Cl(DACHEX)]]	−0.82		> 2			26.4 ± 5.5	1.51 ± 0.6	1.97 ± 0.4	0.25 ± 0.05	3.58 ± 1.4	0.93 ± 0.3	67
NC1CC=CCC1N.O=C1[O][Pt]([OH])([Cl])[O]C1=O (racemic) [Complex 6, cis,trans,cis-[Pt(OXA)(OH)Cl(DACHEX)]]	−0.48		> 2			30.2 ± 3.8	1.31 ± 0.7	1.67 ± 0.4	0.66 ± 0.02	5.25 ± 1.2	1.87 ± 0.4	64
